US20250255304A1, “HIGHLY TRA[…] CONTROLLING COMPOSITION” (ZM Crop Protection Corporation, priority 2022, published 2025)

Legend:
Type in all cases: in vivo
[1] = system: Coptotermes formosanus Shiraki; assay: Test Example 2: secondary transmission treatment effect; settings: Table 5, dicloromezotiaz 0.023%, fipronil 0.03%, imidacloprid 0.10%, chlorantraniliprole 0.05% solution in soil
Protocol: (§1) A test agent solution containing 0.023 parts of dicloromezotiaz was prepared by adding 99.875 parts of water to 0.125 parts of the aqueous suspension composition shown in Formulation Example 1. As comparative examples, four types of commercially available neonicotinoid termite controlling agents and four types of slow-acting termite controlling agents shown in Table 2 were diluted with water at practical concentrations to prepare test agent solutions. The “agent concentration (%)” indicates the concentration of the active ingredient contained in each of the composition of the present invention and the termite controlling agents and the “test agent solution concentration (%)” indicates the concentration of the active ingredient in each of the prepared test agent solutions.
(§2) After 1.2 g of each of the test agent solutions of the example and the comparative examples diluted to a predetermined concentration and prepared was added to 4.8 g of soil, 6 g of the mixed soil was spread in a glass petri dish having a diameter of 50 mm and ten workers of Coptotermes formosanus Shiraki were released into the petri dish and exposed to the agent solution for 4 hours.

[2] = system: Coptotermes formosanus Shiraki; assay: Test Example 2: primary transmission treatment effect; settings: Table 3, dicloromezotiaz 0.023%, fipronil 0.03%, imidacloprid 0.10%, chlorantraniliprole 0.05% solution in soil
Protocol: as §1, §2

[3] = system: Coptotermes formosanus Shiraki; assay: Test Example 1: effect of agent on gypsum treated with test agent solution; settings: dicloromezotiaz 0.023%, imidacloprid 0.1%, fipronil 0.03% test agent solution on gypsum
Protocol: A test agent solution containing 0.023 parts of dicloromezotiaz was prepared by adding 99.875 parts of water to 0.125 parts of the aqueous suspension composition shown in Formulation Example 1.
In a comparative example, an aqueous suspension composition prepared by adding an agent solution, wherein 99 parts of water was added to 1 part of a flowable containing 10.0 parts of imidacloprid and which contained 0.1 parts of imidacloprid and a drug solution, wherein 299 parts of water was added to 1 part of a flowable containing 9.1 parts of fipronil and which contained 0.03 parts of fipronil, uniformly mixing same was used as a test agent solution of a comparative example.
As the imidacloprid formulation and the fipronil formulation, commercially available termite controlling agents were used and diluted solutions at practical agent concentrations thereof were used as test agent solutions.
Gypsum was cured and spread in a glass petri dish having a diameter of 90 mm, 15 ml of each of the test agent solution of the example and the test agent solution of the comparative example was uniformly dropped on the entire surface of the gypsum. Thereafter, ten workers of Coptotermes formosanus Shiraki were released into the petri dish and the petri dish was covered and left to stand in a thermostatic chamber (25° C./relative humidity 60%).
The number of abnormal termites and the number of dead termites among the released termites (Coptotermes formosanus Shiraki) were observed every one hour from immediately after the release of the termites (Coptotermes formosanus Shiraki) until ten hours passed and the total number of the abnormal termite rate and the dead termite rate was calculated as the abnormal or dead termite rate (%) according to [Expression 1] below and the rates of expression of the effects of the respective agents were compared. Each test agent was prepared in one petri dish as one plot and the test was carried out in two replicates.

[4] = system: Coptotermes formosanus Shiraki; assay: Test Example 3: extirpation test with dust formulation using simulated termite trails; settings: active ingredient concentration 0.5%

| Compound | Abnormal or dead termite rate (%) ([1]; after 1 day) | Abnormal or dead termite rate (%) ([1]; after 3 days) | Abnormal or dead termite rate (%) ([1]; after 7 days) | Abnormal or dead termite rate (%) ([1]; after 14 days) | Abnormal or dead termite rate (%) ([1]; after 21 days) | Abnormal or dead termite rate (%) ([2]; after 1 day) | Abnormal or dead termite rate (%) ([2]; after 3 days) | Abnormal or dead termite rate (%) ([2]; after 7 days) | Abnormal or dead termite rate (%) ([2]; after 14 days) | Abnormal or dead termite rate (%) ([2]; after 21 days) | Abnormal or dead termite rate (%) ([3]; time elapsed 1 h) | Abnormal or dead termite rate (%) ([3]; time elapsed 2 h) | Abnormal or dead termite rate (%) ([3]; time elapsed 3 h) | Abnormal or dead termite rate (%) ([3]; time elapsed 4 h) | Abnormal or dead termite rate (%) ([3]; time elapsed 5 h) | Abnormal or dead termite rate (%) ([3]; time elapsed 6 h) | Abnormal or dead termite rate (%) ([3]; time elapsed 7 h) | Abnormal or dead termite rate (%) ([3]; time elapsed 8 h) | Abnormal or dead termite rate (%) ([3]; time elapsed 9 h) | Abnormal or dead termite rate (%) ([3]; time elapsed 10 h) | further results |
| --- | --- | --- | --- | --- | --- | --- | --- | --- | --- | --- | --- | --- | --- | --- | --- | --- | --- | --- | --- | --- | --- |
| O=[N+]([O-])NC1=NCCN1Cc1ccc(Cl)nc1 [Imidacloprid] | 0 | 1.1 | 1.1 | 1.1 | 1.2 | 92 | 22 | 11 | 14 | 15 | 100 | 100 | 100 | 100 | 100 | 100 | 100 | 100 | 100 | 100 |  |
| N#Cc1nn(-c2c(Cl)cc(C(F)(F)F)cc2Cl)c(N)c1[S+]([O-])C(F)(F)F (stereo not drawn) [Fipronil] | 0 | 0 | 19 | 30 | 31 | 82 | 95 | 100 | 100 | 100 | 18 | 36 | 52 | 100 | 100 | 100 | 100 | 100 | 100 | 100 | Abnormal or dead termite rate (%) ([4]; 1 h): 0%; Abnormal or dead termite rate (%) ([4]; 2 h): 5%; Abnormal or dead termite rate (%) ([4]; 3 h): 50%; Abnormal or dead termite rate (%) ([4]; 4 h): 95%; Abnormal or dead termite rate (%) ([4]; 5 h): 95%; Abnormal or dead termite rate (%) ([4]; 6 h): 100%; Abnormal or dead termite rate (%) ([4]; 7 h): 100%; Abnormal or dead termite rate (%) ([4]; 1 day): 100%; Abnormal or dead termite rate (%) ([4]; 2 days): 100%; Abnormal or dead termite rate (%) ([4]; 3 days): 100%; Abnormal or dead termite rate (%) ([4]; 7 days): 100% |
